From BigSolDB 2.1

CC1(C)[C@H](C(=O)O)N2C(=O)[C@@H](NC(=O)Cc3ccccc3)[C@H]2S1=O (stereo partly drawn)
Settings	solubility (mole fraction)
in MIBK, 278.15 K	0.00173
in MIBK, 287.85 K	0.00184
in MIBK, 295.15 K	0.00201
in MIBK, 297.95 K	0.00213
in MIBK, 303.35 K	0.00227
in MIBK, 308.05 K	0.00238
in MIBK, 313.35 K	0.00262
in MIBK, 317.65 K	0.00278
in MIBK, 323.75 K	0.00316
in ethyl acetate, 273.15 K	0.00211
in ethyl acetate, 278.15 K	0.00222
in ethyl acetate, 283.25 K	0.00227
in ethyl acetate, 288.15 K	0.00233
in ethyl acetate, 292.75 K	0.00256
in ethyl acetate, 298.55 K	0.0028
in ethyl acetate, 303.15 K	0.00316
in ethyl acetate, 307.45 K	0.00338
in ethyl acetate, 312.85 K	0.00383
in ethyl acetate, 317.65 K	0.0044
in ethyl acetate, 321.25 K	0.00486
in n-butyl acetate, 273.15 K	0.000603
in n-butyl acetate, 278.25 K	0.000678
in n-butyl acetate, 281.95 K	0.000735
in n-butyl acetate, 287.65 K	0.000825
in n-butyl acetate, 292.55 K	0.000979
in n-butyl acetate, 297.35 K	0.0011
in n-butyl acetate, 302.95 K	0.00134
in n-butyl acetate, 307.65 K	0.00151
in n-butyl acetate, 312.65 K	0.00166
in n-butyl acetate, 317.65 K	0.00192
in toluene, 283.15 K	2.74e-05
in toluene, 288.35 K	3.68e-05
in toluene, 293.95 K	5.26e-05
in toluene, 298.15 K	6.12e-05
in toluene, 303.45 K	6.97e-05
in toluene, 311.65 K	8.7e-05
in toluene, 316.85 K	0.000105
in toluene, 323.65 K	0.000113
